Where a name gives a salt, the structure may show the parent alone.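 Dose response: 5 concentrations. Exposure: 48 h. Format: 96-well plates. Endpoint: linear interpolation; highest concentration if not reached. At the GI50, growth is halved.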 Active and inactive are the calls of the source. Cut-off read from the data, not from the text of the source: active = GI50 up to about 1.1 µM and inactive = higher.
Tests used:
Experiment in all cases: DTP human tumour cell line panel, 48 h
Hs-578T = system: Hs-578T
786-0 = system: 786-0
PC-3 = system: PC-3
SK-OV-3 = system: SK-OV-3
HOP-62 = system: HOP-62
HOP-92 = system: HOP-92
RXF 393 = system: RXF 393
UACC-257 = system: UACC-257
SN12C = system: SN12C
T47D = system: T47D
MDA-MB-435 = system: MDA-MB-435
SNB-75 = system: SNB-75
ACHN = system: ACHN
CAKI-1 = system: CAKI-1
BT-549 = system: BT-549
SK-MEL-2 = system: SK-MEL-2
SF-268 = system: SF-268
OVCAR-8 = system: OVCAR-8
SW-620 = system: SW-620
HCC 2998 = system: HCC 2998

Measured: GI50

NC(=O)NC1NC(=O)NC1=O (stereo not given) [ALLANTOIN]
inactive: Hs-578T > 100 µM | 786-0 > 100 µM | PC-3 > 100 µM | SK-OV-3 > 100 µM | HOP-62 > 100 µM | HOP-92 > 100 µM | RXF 393 > 100 µM | UACC-257 > 100 µM | SN12C > 100 µM | T47D > 100 µM | MDA-MB-435 > 100 µM | SNB-75 > 100 µM | ACHN > 100 µM | CAKI-1 > 100 µM | BT-549 > 100 µM | SK-MEL-2 > 100 µM | SF-268 > 100 µM | OVCAR-8 > 100 µM | SW-620 > 100 µM | HCC 2998 > 100 µM

CN1CCC(CN2c3ccccc3Sc3ccccc32)C1 (stereo not given) [METHDILAZINE HYDROCHLORIDE]
inactive: Hs-578T 15.4 µM | 786-0 14.7 µM | PC-3 12.4 µM | SK-OV-3 17.3 µM | HOP-62 15 µM | HOP-92 12.8 µM | RXF 393 3.5 µM | UACC-257 11.8 µM | SN12C 15.3 µM | T47D 15.8 µM | MDA-MB-435 10.1 µM | SNB-75 1.79 µM | ACHN 14.7 µM | CAKI-1 14.7 µM | BT-549 16.8 µM | SK-MEL-2 15.7 µM | SF-268 15.3 µM | OVCAR-8 16.5 µM | SW-620 19.2 µM | HCC 2998 10.1 µM
